# Test results published in US20070128217A1 (priority 2003, published 2007).
# Tests used:
# [1] = system: rabbit serum obtained by immunizing a rabbit with the SARS-CoV strain Frankfurt 1; assay type: binding; set-up: Binding of a rabbit serum to linear peptides / Binding of a rabbit serum to looped peptides / Rabbit serum linear peptides / Rabbit serum looped peptides / Binding of a rabbit serum to linear peptides of protein N of SARS-CoV Urbani (Rabbit serum linear peptides) / Binding of a rabbit serum to looped/cyclic peptides of protein N of SARS-CoV Urbani (Rabbit serum looped peptides): unit not given here
# [2] = system: control sera (pooled serum of ten healthy LUMC hospital workers; commercial negative donor pooled serum from the Dutch bloodbank); assay type: binding, human; set-up: Binding of Control serum LUMC to linear peptides / Binding of Control serum Blood-bank to linear peptides / Binding of Control serum LUMC to looped peptides / Binding of Control Serum Blood-Bank to Looped peptides / Binding of Control serum LUMC to linear peptides of the protein M of SARS-CoV Urbani / Binding of Control serum Blood-bank to linear peptides of the protein M of SARS-CoV Urbani / Binding of Control serum LUMC to looped peptides of the protein M of SARS-CoV Urbani / Binding of Control Serum Blood-Bank to Looped peptides of the protein M of SARS-CoV Urbani: unit not given here
# [3] = system: antibodies in sera from SARS patients (sera 1a, 1b, 2, 6, 37, 62, London, SARS-yellow, SARS-green); assay type: binding, human; set-up: Binding of serum 6 to linear peptides of protein X1 of SARS-CoV Urbani / Binding of serum 37 to linear peptides of protein X1 of SARS-CoV Urbani / Binding of serum 6 to looped/cyclic peptide (PEPSCAN-ELISA) / Binding of serum 37 to looped/cyclic peptide (PEPSCAN-ELISA) / Binding of serum 37 to looped/cyclic peptides of protein X1 of SARS-CoV Urbani / Binding of serum 6 to linear peptides of protein X2 / Binding of serum 37 to linear peptides of protein X2 / Binding of serum 37 to looped/cyclic peptides of protein X2 of SARS-CoV Urbani / Binding of serum 6 to linear peptides of protein M of SARS-CoV Urbani / Binding of serum 37 to linear peptides of protein M of SARS-CoV Urbani / Binding of serum 6 to looped/cyclic peptides of protein M of SARS-CoV Urbani / Binding of serum 37 to looped/cyclic peptides of protein M of SARS-CoV Urbani / Binding of serum 6 to linear peptides of protein X3 of SARS-CoV Urbani / Binding of serum 37 to linear peptides of protein X3 of SARS-CoV Urbani / Binding of serum 37 to looped/cyclic peptides of protein X3 of SARS-CoV Urbani / Binding of serum 6 to linear peptides of protein X4 of SARS-CoV Urbani / Binding of serum 37 to linear peptides of protein X4 of SARS-CoV Urbani / Binding of serum 37 to looped/cyclic peptides of protein X4 of SARS-CoV Urbani / Binding of serum 6 to linear peptides of protein X5 of SARS-CoV Urbani / Binding of serum 37 to linear peptides of protein X5 of SARS-CoV Urbani / Binding of serum 37 to looped/cyclic peptides of protein X5 of SARS-CoV Urbani / Binding of serum 6 to linear peptides of protein N of SARS-CoV Urbani / Binding of serum 37 to linear peptides of protein N of SARS-CoV Urbani / Binding of serum 6 to linear peptide (PEPSCAN-ELISA) / Binding of serum 1a to looped/cyclic peptides of protein N of SARS-CoV Urbani / Binding of serum 1b to looped/cyclic peptides of protein N of SARS-CoV Urbani / Binding of serum 2 to looped/cyclic peptides of protein N of SARS-CoV Urbani / Binding of serum 6 to looped/cyclic peptides of protein N of SARS-CoV Urbani / Binding of serum 37 to looped/cyclic peptides of protein N of SARS-CoV Urbani / Binding of serum 62 to looped/cyclic peptides of protein N of SARS-CoV Urbani / Binding of serum London to looped/cyclic peptides of protein N of SARS-CoV Urbani / Binding of serum SARS-green to looped/cyclic peptides of protein N of SARS-CoV Urbani: unit not given here
sequence,measurement,setting,value
IGFLFLAWIMLLQFA,Rabbit serum linear peptides,[1],0.2
same,Rabbit serum looped peptides,[1],0.3
same,Binding of Control Serum Blood-Bank to Looped peptides of the protein M of SARS-CoV Urbani,[2],0.7
same,Binding of Control serum Blood-bank to linear peptides of the protein M of SARS-CoV Urbani,[2],0.7
same,Binding of Control serum LUMC to linear peptides of the protein M of SARS-CoV Urbani,[2],0.7
same,Binding of Control serum LUMC to looped peptides of the protein M of SARS-CoV Urbani,[2],0.8
same,Binding of serum 1a to linear peptides of protein M of SARS-CoV Urbani,[3],0.7
same,Binding of serum 1a to looped/cyclic peptides of protein M of SARS-CoV Urbani,[3],0.8
same,Binding of serum 1b to linear peptides of protein M of SARS-CoV Urbani,[3],0.6
same,Binding of serum 1b to looped/cyclic peptides of protein M of SARS-CoV Urbani,[3],0.7
same,Binding of serum 2 to linear peptides of protein M of SARS-CoV Urbani,[3],0.5
same,Binding of serum 2 to looped/cyclic peptides of protein M of SARS-CoV Urbani,[3],0.6
same,Binding of serum 6 to linear peptides of protein M of SARS-CoV Urbani,[3],0.9
same,Binding of serum 6 to looped/cyclic peptides of protein M of SARS-CoV Urbani,[3],0.9
same,Binding of serum 37 to linear peptides of protein M of SARS-CoV Urbani,[3],0.4
same,Binding of serum 37 to looped/cyclic peptides of protein M of SARS-CoV Urbani,[3],0.7
same,Binding of serum 62 to linear peptides of protein M of SARS-CoV Urbani,[3],0.5
same,Binding of serum 62 to looped/cyclic peptides of protein M of SARS-CoV Urbani,[3],0.8
same,Binding of serum London to linear peptides of protein M of SARS-CoV Urbani,[3],0.6
same,Binding of serum London to looped/cyclic peptides of protein M of SARS-CoV Urbani,[3],0.3
same,Binding of serum SARS-green to linear peptides of protein M of SARS-CoV Urbani,[3],0.5
same,Binding of serum SARS-green to looped/cyclic peptides of protein M of SARS-CoV Urbani,[3],0.3
same,Binding of serum SARS-yellow to linear peptides of protein M of SARS-CoV Urbani,[3],0.2
same,Binding of serum SARS-yellow to looped/cyclic peptides of protein M of SARS-CoV Urbani,[3],0.5
RRLLACLCKHKKVST,Binding of a rabbit serum to linear peptides,[1],0.6
same,Binding of a rabbit serum to looped peptides,[1],0.3
same,Binding of Control Serum Blood-Bank to Looped peptides,[2],0.2
same,Binding of Control serum Blood-bank to linear peptides,[2],0.9
same,Binding of Control serum LUMC to linear peptides,[2],0.7
same,Binding of Control serum LUMC to looped peptides,[2],0.3
same,Binding of serum 1a to looped/cyclic peptides of protein X2 of SARS-CoV Urbani,[3],0.2
same,Binding of serum 1b to looped/cyclic peptides of protein X2 of SARS-CoV Urbani,[3],0.1
same,Binding of serum 2 to looped/cyclic peptides of protein X2 of SARS-CoV Urbani,[3],0.1
same,Binding of serum 6 to looped/cyclic peptides of protein X2 of SARS-CoV Urbani,[3],0.2
same,Binding of serum 37 to looped/cyclic peptides of protein X2 of SARS-CoV Urbani,[3],0.2
same,Binding of serum 62 to looped/cyclic peptides of protein X2 of SARS-CoV Urbani,[3],0.4
same,Binding of serum London to looped/cyclic peptides of protein X2 of SARS-CoV Urbani,[3],0.2
same,Binding of serum SARS-green to looped/cyclic peptides of protein X2 of SARS-CoV Urbani,[3],0.2
same,Binding of serum SARS-yellow to looped/cyclic peptides of protein X2 of SARS-CoV Urbani,[3],0.2
same,"Recognition of the peptide by sera of SARS-CoV infected individuals, and form (linear, looped/cyclic) in which it is recognized",[3],recognized in linear form
VILRIGTQVLKTMSL,Binding of a rabbit serum to linear peptides,[1],0.3
same,Binding of a rabbit serum to looped peptides,[1],0.5
same,Binding of Control Serum Blood-Bank to Looped peptides,[2],0.7
same,Binding of Control serum Blood-bank to linear peptides,[2],0.8
same,Binding of Control serum LUMC to linear peptides,[2],0.5
same,Binding of Control serum LUMC to looped peptides,[2],0.7
same,Binding of serum 1a to linear peptides of protein X2,[3],0.6
same,Binding of serum 1a to looped/cyclic peptides of protein X2 of SARS-CoV Urbani,[3],0.6
same,Binding of serum 1b to linear peptides of protein X2,[3],0.5
same,Binding of serum 1b to looped/cyclic peptides of protein X2 of SARS-CoV Urbani,[3],0.6
same,Binding of serum 2 to linear peptides of protein X2,[3],0.5
same,Binding of serum 2 to looped/cyclic peptides of protein X2 of SARS-CoV Urbani,[3],0.4
same,Binding of serum 6 to linear peptides of protein X2,[3],0.5
same,Binding of serum 6 to looped/cyclic peptides of protein X2 of SARS-CoV Urbani,[3],0.5
same,Binding of serum 37 to linear peptides of protein X2,[3],0.6
same,Binding of serum 37 to looped/cyclic peptides of protein X2 of SARS-CoV Urbani,[3],0.5
same,Binding of serum 62 to linear peptides of protein X2,[3],0.6
same,Binding of serum 62 to looped/cyclic peptides of protein X2 of SARS-CoV Urbani,[3],0.7
same,Binding of serum London to linear peptides of protein X2,[3],0.4
same,Binding of serum London to looped/cyclic peptides of protein X2 of SARS-CoV Urbani,[3],0.2
same,Binding of serum SARS-green to linear peptides of protein X2,[3],0.4
same,Binding of serum SARS-green to looped/cyclic peptides of protein X2 of SARS-CoV Urbani,[3],0.3
same,Binding of serum SARS-yellow to linear peptides of protein X2,[3],0.4
same,Binding of serum SARS-yellow to looped/cyclic peptides of protein X2 of SARS-CoV Urbani,[3],0.4
YNTRGNTYSTAWLCA,Rabbit serum linear peptides,[1],0.7
same,Rabbit serum looped peptides,[1],0.0
same,Binding of Control Serum Blood-Bank to Looped peptides,[2],0.5
same,Binding of Control serum Blood-bank to linear peptides,[2],0.7
same,Binding of Control serum LUMC to linear peptides,[2],0.6
same,Binding of Control serum LUMC to looped peptides,[2],0.5
same,Binding of serum 1a to linear peptides of protein X5 of SARS-CoV Urbani,[3],0.8
same,Binding of serum 1a to looped/cyclic peptides of protein X5 of SARS-CoV Urbani,[3],0.3
same,Binding of serum 1b to linear peptides of protein X5 of SARS-CoV Urbani,[3],0.6
same,Binding of serum 1b to looped/cyclic peptides of protein X5 of SARS-CoV Urbani,[3],0.2
same,Binding of serum 2 to linear peptides of protein X5 of SARS-CoV Urbani,[3],0.6
same,Binding of serum 2 to looped/cyclic peptides of protein X5 of SARS-CoV Urbani,[3],0.4
same,Binding of serum 6 to linear peptides of protein X5 of SARS-CoV Urbani,[3],0.8
same,Binding of serum 6 to looped/cyclic peptides of protein X5 of SARS-CoV Urbani,[3],0.4
same,Binding of serum 37 to linear peptides of protein X5 of SARS-CoV Urbani,[3],0.7
same,Binding of serum 37 to looped/cyclic peptides of protein X5 of SARS-CoV Urbani,[3],0.0
same,Binding of serum 62 to linear peptides of protein X5 of SARS-CoV Urbani,[3],0.7
same,Binding of serum 62 to looped/cyclic peptides of protein X5 of SARS-CoV Urbani,[3],0.2
same,Binding of serum London to linear peptides of protein X5 of SARS-CoV Urbani,[3],0.8
same,Binding of serum London to looped/cyclic peptides of protein X5 of SARS-CoV Urbani,[3],0.2
same,Binding of serum SARS-green to linear peptides of protein X5 of SARS-CoV Urbani,[3],0.7
same,Binding of serum SARS-green to looped/cyclic peptides of protein X5 of SARS-CoV Urbani,[3],0.2
same,Binding of serum SARS-yellow to linear peptides of protein X5 of SARS-CoV Urbani,[3],0.4
same,Binding of serum SARS-yellow to looped/cyclic peptides of protein X5 of SARS-CoV Urbani,[3],0.6
LVIGAVIIRGHLRMA,Rabbit serum linear peptides,[1],0.2
same,Rabbit serum looped peptides,[1],1.4
same,Binding of Control Serum Blood-Bank to Looped peptides of the protein M of SARS-CoV Urbani,[2],0.7
same,Binding of Control serum Blood-bank to linear peptides of the protein M of SARS-CoV Urbani,[2],0.6
same,Binding of Control serum LUMC to linear peptides of the protein M of SARS-CoV Urbani,[2],0.7
same,Binding of Control serum LUMC to looped peptides of the protein M of SARS-CoV Urbani,[2],0.7
same,Binding of serum 1a to linear peptides of protein M of SARS-CoV Urbani,[3],0.7
same,Binding of serum 1a to looped/cyclic peptides of protein M of SARS-CoV Urbani,[3],0.8
same,Binding of serum 1b to linear peptides of protein M of SARS-CoV Urbani,[3],0.5
same,Binding of serum 1b to looped/cyclic peptides of protein M of SARS-CoV Urbani,[3],0.4
same,Binding of serum 2 to linear peptides of protein M of SARS-CoV Urbani,[3],0.5
same,Binding of serum 2 to looped/cyclic peptides of protein M of SARS-CoV Urbani,[3],0.8
same,Binding of serum 6 to linear peptides of protein M of SARS-CoV Urbani,[3],0.6
same,Binding of serum 6 to looped/cyclic peptides of protein M of SARS-CoV Urbani,[3],1.2
same,Binding of serum 37 to linear peptides of protein M of SARS-CoV Urbani,[3],0.4
same,Binding of serum 37 to looped/cyclic peptides of protein M of SARS-CoV Urbani,[3],0.7
same,Binding of serum 62 to linear peptides of protein M of SARS-CoV Urbani,[3],0.4
same,Binding of serum 62 to looped/cyclic peptides of protein M of SARS-CoV Urbani,[3],0.8
same,Binding of serum London to linear peptides of protein M of SARS-CoV Urbani,[3],0.3
same,Binding of serum SARS-green to linear peptides of protein M of SARS-CoV Urbani,[3],0.4
same,Binding of serum SARS-green to looped/cyclic peptides of protein M of SARS-CoV Urbani,[3],0.3
same,Binding of serum SARS-yellow to linear peptides of protein M of SARS-CoV Urbani,[3],0.3
same,Binding of serum SARS-yellow to looped/cyclic peptides of protein M of SARS-CoV Urbani,[3],0.7
